Test results taken from patent publication US20060030711A1 (priority 2004, published 2006).
Where two headings read alike, the source gives them in different places.

Experiments:
[1] = thermodynamic stability of polymorphs (DSC comparison); type: physicochemical
Experimental: Pipindoxifene hydrochloride monohydrate can also exist as form I polymorph. Sample data for certain physical properties are compared for form I and form II polymorphs below in Table 2.
DSC measurements were carried out in both sealed pan and vented pan at a scan rate of 10° C./min from 25° C. to 200° C. under nitrogen purge using a Pyris I DSC from Perkin-Elmer.

[2] = tested on: tamoxifen-sensitive cells lines; details: other studies; cited from earlier work
[3] = tested on: uterus; details: tissue selective estrogenic effects; cited from earlier work
[4] = tested on: tamoxifen-resistent MCF-7 breast cancer xenografts; details: recent preclinical studies; cited from earlier work

Cc1c(-c2ccc(O)cc2)n(Cc2ccc(OCCN3CCCCC3)cc2)c2ccc(O)cc12.Cl [form II, pipindoxifene hydrochloride monohydrate]
thermodynamic stability of crystalline polymorph [1]: Less thermodynamically stable

Cc1c(-c2ccc(O)cc2)n(Cc2ccc(OCCN3CCCCC3)cc2)c2ccc(O)cc12.Cl [Form I, pipindoxifene hydrochloride monohydrate]
thermodynamic stability of crystalline polymorph ([1]; form I versus form II, from Table 2 DSC data, hydrochloride monohydrate): thermodynamically more stable than form II

Cc1c(-c2ccc(O)cc2)n(Cc2ccc(OCCN3CCCCC3)cc2)c2ccc(O)cc12.Cl [pipindoxifene, 2-(4-hydroxyphenyl)-3-methyl-1-[4-(2-piperidin-1-ylethoxy)-benzyl]-1H-indol-5-ol hydrochloride]
effectiveness in tamoxifen-sensitive cell lines [2]: effectiveness
uterotropic activity [3]: little or no uterotropic activity
growth of tamoxifen-resistant MCF-7 breast cancer xenografts [4]: inhibited the growth
